Data taken from patent US9206212B2, “Actinomycete strain composition and its use” (CENTRE NATIONAL DE LA RECHERCHE SCIENTIFIQUE, priority 2011, dated 2015).
Where a SMILES comes first, the peptide text is derived from it. Bridges are numbered along the chain shown (N, C = ends). [ ]: non-standard residue; d: D form. The star is where a group is joined. Ileψ(thiazoline)Cys = CC[C@H](C)[C@H](N)C1=N[C@H](C(=O)*)CS1; dOrn = NCCC[C@@H](N)C(=O)O

Experiments:
[1] = tested on: Streptomyces sp. BG76; test: Antibiotic sensibility of the strain; type: cell-based; design: key to Antibiotic sensibility: S: sensitive; R: resistant; conditions: for Antibiotic sensibility: amount given with each antibiotic (30 μg, 300 U, 10 μg, 10 U, 250 μg)
[2] = Solubility of the antibiotic; type: physicochemical; conditions: methanol and water
[3] = Mineral phosphate solubilization test
[4] = Mineral phosphate solubilization test; remark: listed apart in the source
[5] = tested on: Bacillus subtilis ATCC 9524 (BS); test: Antimicrobial bioassay, paper filter disk technique (agar diffusion); type: cell-based
Experimental: (§1) The retention time of the main peaks D1 and D2 were 15.62 and 17.99 min, respectively. These fractions were checked again for both activities with mineral phosphate solubilization test and anti microbial bioassay, against ML, BS, PU and MR using the paper filter disk technique.
(§2) The purified Viridomycin (compound 1) was checked for anti microbial bioassay, against Micrococcus luteus ATCC 381 (ML), Bacillus subtilis ATCC 9524 (BS) and the phytopathogenic fungi Pythium ultimum (PU) and Mucor ramannianus NRRL 1829 (MR) using the paper filter disk technique.

[6] = tested on: Micrococcus luteus ATCC 381 (ML); test: as above; type: cell-based
Experimental: as §1, §2

[7] = tested on: Mucor ramannianus NRRL 1829 (MR); test: as above; type: cell-based
Experimental: as §1, §2

[8] = tested on: Pythium ultimum (PU); test: as above; type: cell-based
Experimental: as §1, §2

[9] = HPLC peak of fraction D, FIG. 4
[10] = purified Compound 1 at final concentration 98.5 mg·mL^−1
[11] = filter disc i.d. 6 mm, c = 20 μg/mL, 20 μL/disc

CC[C@H](C)[C@H](N)C1=N[C@H](C(=O)N[C@@H](CC(C)C)C(=O)N[C@H](CCC(=O)O)C(=O)N[C@H](C(=O)N[C@H]2CCCCNC(=O)[C@H](CC(N)=O)NC(=O)[C@@H](CC(=O)O)NC(=O)[C@H](Cc3cnc[nH]3)NC(=O)[C@@H](Cc3ccccc3)NC(=O)[C@H]([C@@H](C)CC)NC(=O)[C@@H](CCCN)NC2=O)[C@@H](C)CC)CS1 [Bacitracine] ({Ileψ(thiazoline)Cys}-L[dE]IK[dOrn]I[dF]H[dD]N; lactam 4-C)
Sensitivity of the strain to the antibiotic (in words) [1]: sensitive | Antibiotic sensibility [1]: S

CC(=O)OCC1=C(C(=O)O)N2C(=O)[C@@H](NC(=O)Cc3cccs3)[C@H]2SC1 [Cefalotin]
Sensitivity of the strain to the antibiotic (in words) [1]: sensitive | Antibiotic sensibility [1]: S

CO[C@@H]1[C@@H](OC(N)=O)[C@@H](O)[C@H](Oc2ccc3c(O)c(NC(=O)c4ccc(O)c(CC=C(C)C)c4)c(=O)oc3c2C)OC1(C)C [Novobiocine]
Sensitivity of the strain to the antibiotic (in words) [1]: sensitive | Antibiotic sensibility [1]: S

NS(N)(=O)=O [Sulfamides]
Sensitivity of the strain to the antibiotic (in words) [1]: resistant | Antibiotic sensibility [1]: R

Gentamycine
Sensitivity of the strain to the antibiotic (in words) [1]: sensitive | Antibiotic sensibility [1]: S

Polymyxin B
Sensitivity of the strain to the antibiotic (in words) [1]: sensitive | Antibiotic sensibility [1]: S

Tris (3-imino-4-oxo-cyclohexa-1,5-diene-carbaldehydro) iron (III) [Compound 1]
Solubility [2]: soluble in methanol and water | Mineral phosphate solubilization activity (in words) [3, 9]: mineral phosphate solubilization activities | Concentration of solubilized Phosphate from TC [3, 10]: 135.2 µg/mL | Mineral phosphate solubilization activity (in words) [4, 9]: mineral phosphate solubilization activities | Concentration of solubilized Phosphate from RP [4, 10]: 63.7 µg/mL | Diameter of microbial growth inhibition zone [5, 11]: 29 mm | Antimicrobial activity (in words) ([5]; on the standard media): inhibited | Diameter of microbial growth inhibition zone [6, 11]: 45 mm | Antimicrobial activity (in words) ([6]; on the standard media): inhibited | Diameter of microbial growth inhibition zone [7, 11]: 38 mm | Antimicrobial activity (in words) ([7]; on the standard media): inhibited | Diameter of microbial growth inhibition zone [8, 11]: 27 mm | Antimicrobial activity (in words) ([8]; on the standard media): inhibited
